From patent US8436159B2, “Glyphosate resistant class I 5-endolpyruvylshikimate-3-phosphate synthase (EPSPS)” (Monsanto Technology LLC, priority 2003, dated 2013)
Where a chain is given by its changes, count along the chain named.

Experiments:
[1] = system: E. coli EPSPS variant, alanine for the glycine at position 96 (G96A); conditions: glyphosate-resistant isolate; read-out: apparent Ki for glyphosate; cited from earlier work
[2] = target: T1, maize (Zea mays) class I EPSPS variant TIPT (T102I, P106T), pMON58452, ZmTIPT SEQ ID NO:38 (Zea mays, UniProt O24566, P106T/T102I); test: EPSPS steady-state kinetics, TIPT variant; format: biochemical
T1 construct: pMON58452
T1 sequence (O24566 1-444 T102I/P106T): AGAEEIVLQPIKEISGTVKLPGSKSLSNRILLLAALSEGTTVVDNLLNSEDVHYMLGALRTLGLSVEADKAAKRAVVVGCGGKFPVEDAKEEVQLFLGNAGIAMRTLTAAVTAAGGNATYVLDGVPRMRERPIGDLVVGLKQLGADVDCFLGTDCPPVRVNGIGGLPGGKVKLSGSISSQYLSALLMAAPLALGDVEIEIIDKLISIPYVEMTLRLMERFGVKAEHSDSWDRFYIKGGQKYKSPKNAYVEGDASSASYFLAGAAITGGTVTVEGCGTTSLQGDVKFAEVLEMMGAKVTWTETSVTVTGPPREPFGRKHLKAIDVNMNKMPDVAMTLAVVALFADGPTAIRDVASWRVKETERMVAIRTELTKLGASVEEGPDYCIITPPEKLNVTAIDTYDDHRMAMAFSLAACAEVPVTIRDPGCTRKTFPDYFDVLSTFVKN
Description: (§1) The double variants of the present invention were made using pMON58452 (FIG. 5) as the template. This pMON58452 EPSPS gene template contains the maize EPSPS double variant T102I, P106T (TIPT) that was constructed by mutagenesis of pMON70467 with the mutagenesis primers mEmut-9-U and mEmut-10-L. The various mutagenesis primer sequences were designed and then were synthesized by Invitrogen Corp., Custom Primers and used in combination in a PCR to create the variant EPSPS coding sequences. The PCR was set up in a 50 μl reaction in the following manner: dH2O 38 μl; 2 mM dNTP 1 μL; 10× buffer 5 μL; pMON58452 1 μL (10 ng); primer-U 2 μL; primer-L 2 μL; pfu Turbo enzyme 1 μL. PCR was carried out on a MJ Research PTC-200 thermal cycler using the following program: Step 1—94° C. for 30 seconds; Step 2—94° C. for 30 seconds; Step 3—55° C. for 1 minute; Step 4—68° C. for 14 minute; Step 5—go to step 2, 16 times; Step 6—End. At the end of the PCR, 1 μl of the restriction enzyme DpnI was added to each 50 μl of PCR reaction and the mixture was incubated at 37° C. for 1 hour. […]

[3] = target: T2, maize (Zea mays) class I EPSPS variant TIPV (T102I, P106V), pMON42482 (Zea mays, UniProt O24566, P106V/T102I); test: EPSPS steady-state kinetics, TIPV variant; format: biochemical
T2 construct: pMON42482
T2 sequence (O24566 1-444 T102I/P106V): T1 sequence (O24566 1-444 T102I/P106T) with T106V
Description: as §1

In the case of `O=C(O)CNCP(=O)(O)O` [glyphosate, N-phosphonomethylglycine], the Ki [1] is listed as 4 mM, the Ki [2] is listed as 101 ± 12.7 µM and the Ki [3] is listed as 1.6 ± 0.4 mM.
